Measurements reported in patent US10100076B2, “Modified nucleosides for the treatment of viral infections and abnormal cellular proliferation” (priority 2000, dated 2018).
Like-named read-outs stand apart in the source and are kept apart here.

What was measured:
[1] = test system: Vero cells; assay: cells; assay type: cell-based; details: for % inhibition at 100 μM, Vero Cells: three day incubation, MTT
Method: (§1) The cytotoxicity testing as performed herein is a standard technique. Briefly, cells are seeded in 96-well plates at various concentrations (dependent on cell type, duration of assay), typically at 5×10^3 cells per well, in the presence of increasing concentrations of the test compound (0, 1, 3, 10, 33, and 100 μM). After three (Vero cells), or four (CEM cells), or five (PBM cells) day-incubation, cell viability and mitochondrial activity are measured by adding the MTT-dye (Promega), followed by a 8 hours incubation. Afterwards the plates containing the dye are fixed by adding a stop-solution followed by another eight hour incubation. Finally, absorbance is read at 570 nm. Such methodologies are well described and available from the manufacturer (Promega).

[2] = test system: human malignant T and B cells and various tumor cell lines; assay: Toxicity profile against human malignant T and B cells and various tumor cell lines (MTT, IC50); assay type: cell-based; details: MTT assay, 3-5 days
Method: as §1, with “Cytotoxicity” for “The cytotoxicity”, “here are” for “herein is a”, “techniques.” for “technique.”, “Depending on the cell-type incubation with test compound can vary in time, but is usually within the range of 3 to 5 days. Cell” for “After three (Vero cells), or four (CEM cells), or five (PBM cells) day-incubation, cell”, “eight” for “a 8”, “hours of” for “hours”
In order to explore the complete potential of this compound, a set of human malignant T and B cells and various tumor cell lines were incubated with […] at varying concentrations, and after the absorbance was read, an IC50 value was calculated. As a control, Ara-C, 5FU, and cyclo-heximide was taken alongside (Table 26).

[3] = test system: CEM cells; assay: cells; assay type: cell-based, human; details: for % inhibition at 100 μM, CEM Cells: four day incubation, MTT
Method: as §1

[4] = test system: PBM cells; assay: cells; assay type: cell-based, human; details: for % inhibition at 100 μM, PBM cells: five day incubation, MTT
Method: as §1

[5] = test system: HCV replicon; assay: HCV replicon system in Huh7 cells, replicon RNA by Q-RT-PCR (HCV ΔCt, ΔΔCt); assay type: cell-based, hepatitis C virus; details: for Ave. ΔΔCt: HCV RNA ΔCt minus rRNA ΔCt; for Ave. HCV RNA ΔCt: HCV replicon in Huh7 cells; for average ΔΔCt: HCV RNA ΔCt minus rDNA ΔCt
[6] = test system: rDNA (host DNA); assay: rDNA ΔCt in Huh7 replicon cells (effect on cellular DNA polymerases); details: Table 25, average of N
Text: In another typical setting, a compound might reduce the host RNA polymerase activity, but not the host DNA polymerase activity. Therefore, quantification of rDNA or beta-actin DNA (or any other host DNA fragment) and comparison with DNA levels of the no-drug control is a relative measurement of the inhibitory effect of the test compound on cellular DNA polymerases.
With the availability of both the HCV ΔCt data and the rDNA ΔCt, a specificity parameter can be introduced. This parameter is obtained by subtracting both ΔCt values from each other.

[7] = test system: rRNA (host RNA polymerase I product); assay: rRNA ΔCt in Huh7 replicon cells (effect on host RNA polymerases); details: Table 24, average of n
Text: In a typical setting, a compound might reduce both the host RNA polymerase activity and the replicon-encoded polymerase activity. Therefore, quantification of rRNA (or any other host RNA polymerase I product) or beta-actin mRNA (or any other host RNA polymerase II) and comparison with RNA levels of the no-drug control is a relative measurement of the effect of the test compound on host RNA polymerases.
With the availability of both the HCV ΔCt data and the rRNA ΔCt, a specificity parameter can be introduced. This parameter is obtained by subtracting both ΔCt values from each other.

[8] = Vero (African green monkey kidney cell line), MTT assay, incubation 3-5 days, read-out: Toxicity IC50
[9] = CEM (human T-cell lymphoma cell line), MTT assay, incubation 3-5 days, read-out: Toxicity IC50
[10] = PBM (human peripheral blood mononuclear cells), MTT assay, incubation 3-5 days, read-out: Toxicity IC50

| SMILES | IC50 [1] [µM] | % inhibition at 100 μM, Vero Cells [1] [%] | IC50 [3] [µM] | % inhibition at 100 μM, CEM Cells [3] [%] | IC50 [4] [µM] | % inhibition at 100 μM, PBM cells [4] [%] | further results |
| --- | --- | --- | --- | --- | --- | --- | --- |
| O=c1[nH]cc(F)c(=O)[nH]1 [5FU] |  |  |  |  |  |  | IC50 [1, 8]: 65 µM; IC50 ([2]; BL41 (human B-cell lymphoma cell line), read-out: Toxicity IC50): 24.1 µM; IC50 ([2]; H9 (human T-cell lymphoblast cell line), read-out: Toxicity IC50): 14.2 µM; IC50 ([2]; HEPG2 (human liver carcinoma cell line), read-out: Toxicity IC50): 40.6 µM; IC50 ([2]; JY (human B-cell lymphoma cell line, EBV transformed), read-out: Toxicity IC50): 7.5 µM; IC50 ([2]; LNCaP (human prostate adenocarcinoma cell line), read-out: Toxicity IC50): 22.1 µM; IC50 ([2]; MCF-7 (human breast carcinoma cell line), read-out: Toxicity IC50): 43.7 µM; IC50 ([2]; SK-MEL-28 (human melanoma cell line), read-out: Toxicity IC50): 11.2 µM; IC50 ([2]; SK-MES-1 (human lung squamous carcinoma cell line), read-out: Toxicity IC50): 13.1 µM; IC50 ([2]; SupT1 (human T-cell lymphoblast cell line), read-out: Toxicity IC50): 53.6 µM; IC50 [3, 9]: 90.5 µM; IC50 [4, 10]: 13.7 µM |
| Nc1ccn([C@@H]2O[C@H](CO)[C@@H](O)[C@@H]2O)c(=O)n1 [Ara-C, reference compound] |  |  |  |  |  |  | IC50 [1, 8]: 0.8 µM; IC50 ([2]; SUDHL-1 (human anaplastic large T-cell lymphoma cell line), read-out: Toxicity IC50): 3.7 µM; IC50 [3, 9]: 0.6 µM; IC50 [4, 10]: 7 µM |
| C[C@@H]1C[C@@H]([C@H](O)CC2CC(=O)NC(=O)C2)C(=O)[C@@H](C)C1 [cyclo-heximide] |  |  |  |  |  |  | IC50 ([1]; Chlorocebus sabaeus, Vero, read-out: Toxicity IC50): 2.1 µM; IC50 ([2]; Homo sapiens, B-cell, read-out: Toxicity IC50, H9 (human T-cell lymphoblast cell line)): 1 µM; IC50 ([2]; Homo sapiens, B-cell, read-out: Toxicity IC50, JY (human B-cell lymphoma cell line, EBV transformed)): 0.8 µM; IC50 ([2]; Homo sapiens, BL-41, read-out: Toxicity IC50, BL41 (human B-cell lymphoma cell line)): 0.3 µM; IC50 ([2]; Homo sapiens, HepG2, read-out: Toxicity IC50, HEPG2 (human liver carcinoma cell line)): 3.6 µM; IC50 ([2]; Homo sapiens, LNCaP, read-out: Toxicity IC50, LNCaP (human prostate adenocarcinoma cell line)): 2.4 µM; IC50 ([2]; Homo sapiens, MCF7, read-out: Toxicity IC50, MCF-7 (human breast carcinoma cell line)): 1.5 µM; IC50 ([2]; Homo sapiens, SK-MEL-28, read-out: Toxicity IC50, SK-MEL-28 (human melanoma cell line)): 1 µM; IC50 ([2]; Homo sapiens, SK-MES-1, read-out: Toxicity IC50, SK-MES-1 (human lung squamous carcinoma cell line)): 3.4 µM; IC50 ([2]; Homo sapiens, SU-DHL-1, read-out: Toxicity IC50, SUDHL-1 (human anaplastic large T-cell lymphoma cell line)): 0.3 µM; IC50 ([2]; Homo sapiens, SUP-T1, read-out: Toxicity IC50, SupT1 (human T-cell lymphoblast cell line)): 0.6 µM; IC50 ([3]; Homo sapiens, CCRF-CEM, read-out: Toxicity IC50): 0.1 µM; IC50 ([4]; Homo sapiens, PBMC, read-out: Toxicity IC50): 2.6 µM |
| O=c1[nH]c(=O)n([C@@H]2C[C@H](CO)[C@@H](O)[C@H]2O)cc1F [β-D-GF] | > 100 | 4.3 | > 100 | 11.2 | > 100 | −46.2 |  |
| Nc1nc(=O)n([C@H]2C[C@@H](CO)[C@H](O)[C@@H]2O)cc1F [β-L-GA] | > 100 | 27.9 | > 100 | 1.1 | > 100 | −113.2 |  |
| O=c1ccn([C@@H]2CC[C@H](CO)C2)c(=O)[nH]1 [β-L-GC] | > 100 | −13.4 | > 100 | −1.2 | > 100 | −53.2 |  |
| Nc1ccn([C@H]2C[C@@H](CO)[C@H](O)[C@@H]2O)c(=O)n1 [β-L-GD] | > 100 | 0.8 | > 100 | −79.7 | > 100 | −12.9 |  |
| Nc1ccn(C2CCC(CO)C2)c(=O)n1 [β-L-GE] | > 100 | 10.6 | > 100 | 0.0 | > 100 | −59.7 |  |
| O=c1[nH]c(=O)n([C@H]2C[C@@H](CO)[C@H](O)[C@@H]2O)cc1F [β-L-GF] | > 100 | 33.8 | > 100 | 35.1 | > 100 | −70.4 |  |
| Nc1nc(=O)n([C@@H]2CC[C@H](CO)C2)cc1I [β-L-GG] | > 100 | 33.6 | > 100 | 17.3 | > 100 | −34.6 |  |
| Nc1nc(=O)n([C@H]2C[C@@H](CO)[C@H](O)[C@@H]2O)cc1I [β-L-GH] | > 100 | 27.0 | > 100 | 19.7 | > 100 | −52.1 |  |
| Nc1nc(=O)n([C@H]2C[C@@H](CO)[C@H](O)[C@@H]2O)cc1Cl [β-L-GI] | > 100 | 31.9 | > 100 | 18.0 | > 100 | −47.8 |  |
| Nc1nc(=O)n(C2CSC(CO)O2)cc1F [β-L-JB] |  |  |  |  |  |  | Ave. ΔΔCt ([5]; Table 24): −0.90; Ave. HCV RNA ΔCt ([5]; Table 24, average of n): 3.65; average ΔΔCt ([5]; Table 25): 2.45; Ave. HCV RNA ΔCt ([5]; Table 25, average of N): 3.65; Ave. rDNA ΔCt [6]: 1.20; Ave. rRNA ΔCt [7]: 4.55 |
| OC[C@@H]1O[C@H](n2cnc3c(Cl)ncnc32)CS1 [β-L-KA] |  |  |  |  |  |  | Ave. ΔΔCt ([5]; Table 24): −0.74; Ave. HCV RNA ΔCt ([5]; Table 24, average of n): 4.10; average ΔΔCt ([5]; Table 25): 3.69; Ave. HCV RNA ΔCt ([5]; Table 25, average of N): 4.10; Ave. rDNA ΔCt [6]: 0.42; Ave. rRNA ΔCt [7]: 4.84 |
| Nc1nc(F)nc2c1ncn2[C@@H]1CS[C@H](CO)O1 [β-L-KC] |  |  |  |  |  |  | Ave. ΔΔCt ([5]; Table 24): −0.16; Ave. HCV RNA ΔCt ([5]; Table 24, average of n): 1.19; average ΔΔCt ([5]; Table 25): 3.54; Ave. HCV RNA ΔCt ([5]; Table 25, average of N): 2.73; Ave. rDNA ΔCt [6]: −0.81; Ave. rRNA ΔCt [7]: 1.35 |
